From patent US12173309B2, “Compounds for increasing genome editing efficiency” (Max-Planck-Gesellschaft zur Förderung der Wissenschaften …, priority 2017, dated 2024) come the findings set out here.

One test has as its system 409-B2 hiPSCs. Description: PGE efficiency with recombinant Cpf1 ribonucleoprotein electroporation. It counts as cell-based, human. From the text:
The recombinant A.s. Cpf1 and S.p. Cas9 protein and electroporation enhancer was ordered from IDT (Coralville, USA) and nucleofection was done using the manufacturer's protocol, except for the following alterations. […] Cells were counted using the Countess Automated Cell Counter (Invitrogen). […]
CRISPresso (Pinello et al. 2016) was used to analyse sequencing data from CRISPR genome editing experiments for percentage of wildtype, targeted nucleotide substitutions (TNS), indels and mix of TNS and indels. […] Sequencing data from colonies after single cell seeding (FIGS. 3B and C) was further analyzed by evaluating the actual read sequences using SAMtools. Clonal colonies were differentiated from mixed colonies using sequence read proportions. Colonies were counted as clones if the clear majority of reads consisted of a single sequence (homozygous) or of two sequences of similar read count (heterozygous). […]

The test system of test [1] is 409-B2 iCRISPR-Cas9n hiPSCs. Description: BFP insertion (871 nt ssODN) efficiency in AAVS1 iCRISPR locus, microscopy. Conditions: 7 days of BFP expression. It counts as cell-based, human. The source says:
FIG. 8: Impact of the CRISPY mix and its component NU7026 on BFP insertion (ssODN) efficacy in human induced pluripotent stem cells. The design of the mtagBFP2 (Subach et al. 2011) ssODN donor and the iCRISPR system is shown in (A). We inserted a 871 nt (including 50 nt homology arms) sequence coding for a 2A-self cleaving peptide in front of a Blue Fluorescent Protein (BFP), directly after the N-terminal nuclear localization signal sequence (NLS) of the Cas9n in the heterozygous AAVS1 iCRISPR locus (409-B2 iCRISPR-Cas9n hiPSCs). If the sequence is inserted, doxycycline will lead to expression of nucleus-imported BFP. […] Two images (50× magnification, white size bar 200 μm) from each of three technical replicates for the respective treatments were used to quantify the percentage of cells with BFP insertion using ImageJ (C).
409-B2 iCRISPR-Cas9n hiPSCs were nucleofected with gRNAs and the Blue Fluorescent Protein (BFP) single stranded oligo (FIG. 8A, 330 ng) in […] for either mock, NU7026, and CRISPY mix treatment. […] Images were blinded and BFP positive nuclei were counted using the Adobe Photoshop CS5 counting tool. Propidium iodide positive nuclei were quantified using ImageJ by dividing the area of nuclei (default threshold) with the mean area of a single nucleus.

For `O=c1cc(N2CCOCC2)oc2c1ccc1ccccc12` [NU7026], the PGE increase in the test on 409-B2 hiPSCs (DMNT1) amounted to 2.4 fold; with 409-B2 hiPSCs (HPRT) it was 2.1 fold. In addition, the “nuclei positive for BFP” value in test [1] is given as 6%. For the same molecule, the “increase of nuclei positive for BFP” value in test [1] (vs no-CRISPY control (3.7%)) came out at 1.6 fold.
